Paper PMC8621857, “Structural Insights into the Azole Resistance of the Candida albicans Darlington Strain Using Saccharomyces cerevisiae Lanosterol 14α-Demethylase as a Surrogate” (Journal of Fungi, 2021)

How the values were obtained:
[1] = system: S. cerevisiae strain AD3Δ ScErg11 I471T expressing ScLDM6×His I471T; experiment: Broth microdilution drug susceptibility assay (MIC80), strain AD3Δ ScErg11 I471T; format: cell-based, Saccharomyces cerevisiae; conditions: for MIC80: Saccharomyces cerevisiae, 48 h, 30 °C, pH 6.8, mean (± SEM), n = 3; for MIC80 / MIC80/Relative Amount of ScLDM6×His / fold-resistance based on the relative amount of recombinant enzyme compared with strain AD3Δ: strain I471T; for increased susceptibility compared with AD3Δ: strain AD3Δ ScErg11 I471T, not corrected for expression; for MIC80/Relative Amount of ScLDM6×His / fold-resistance based on the relative amount of recombinant enzyme compared with strain AD3Δ: relative expression 0.51
Description: (§1) The native ScERG11 gene in yeast cells containing mutant ScERG11-6×His constructs in the PDR5 locus was disrupted by homologous recombination with a cassette encoding the His1 selection marker and sequences homologous with the regions bordering the endogenous ScERG11 ORF to create strains AD3Δ ScErg11 Y140H, AD3Δ ScErg11 I471T and AD3Δ ScErg11Y140H I471T [43]. Transformants were selected on SD-His agar plates incubated at 30 °C for 48–72 h. Genomic DNA was extracted, and DNA sequencing as above was used to confirm deletion of the native ERG11. Strain AD3Δ ScErg11 (denoted as AD3Δ), which overexpresses wild-type ScLDM6×His from the PDR5 locus and has the native ScERG11 gene disrupted, was used as a control strain [43].
(§2) Azole susceptibility was measured as the mean drug concentration required to inhibit 80% of yeast growth (MIC80) compared to a non-drug control, using a standard broth microdilution assay. Serial dilutions of short- (FLC and VCZ), medium- (VT-1161), and long-tailed (ITC and PCZ) azole drugs, and the control drugs micafungin (MCF) and amphotericin B (AMB), were prepared in a 96-well microtiter plate in complete synthetic media lacking uracil, buffered to pH 6.8 [34]. Control and test cells were seeded at an optical density of 600 nm (OD600) of 0.005 (~1.5 × 10^4 colony forming units). After incubation for 48 h at 30 °C with constant agitation (200 rpm), the OD600 nm of each well was measured using a Synergy 2 multi-mode plate reader (BioTek Instruments, Winooski, VT, USA). The experiment was repeated three times (a total of nine measurements for the response of each strain to each drug). GraphPad Prism 5.0 software was used for statistical analysis, using a one-way analysis of variance with a Bonferroni post-hoc test. The statistical significance of comparisons was accepted when p < 0.05.

[2] = system: C. albicans Darlington strain; experiment: Agarose disk diffusion assay, Darlington strain; format: cell-based, Candida albicans; conditions: for effect of Mdr1 inhibitor MCC1189 on azole susceptibility: MCC1189 at 6 µM in the assay medium; for effect of Cdr1p inhibitor RC21v3 on azole susceptibility: RC21v3 at 6 µM in the assay medium; for agarose diffusion susceptibility: no efflux pump inhibitor
Description: Agarose diffusion assays were carried out as described previously using the Darlington strain of C. albicans (Pfizer Ltd., Sandwich, UK) and the control C. albicans database strain SC5314, which is not resistant to azoles. The Cdr1p-specific inhibitor RC21v3 and the CaMdr1p-specific inhibitor MCC1189 (MicroCombiChem, Wiesbaden, Germany), included in the assay medium at 6 µM, were used to investigate the contribution of efflux pumps to azole resistance in the Darlington strain [49, 50, 51].

[3] = system: S. cerevisiae strain AD2Δ (native wild-type ScLDM); experiment: Broth microdilution drug susceptibility assay (MIC80), host strain AD2Δ; format: cell-based; conditions: Saccharomyces cerevisiae; strain AD2Δ; 48 h, 30 °C, pH 6.8; mean (± SEM), n = 3; read-out: MIC80
Description: Yeast strains used in this study (Supplementary Table S1) were prepared using the AD2Δ strain of S. cerevisiae as a host, using an established protocol. AD2Δ is hypersensitive to xenobiotics due to the deletion of seven major ABC transporters, including those responsible for the efflux of azole drugs. It is also deleted of the PDR3 transcriptional regulator, but contains the gain-of-function Pdr1-3 transcriptional regulator mutation that leads to constitutive overexpression from the PDR5 locus.
as §2

[4] = system: S. cerevisiae strain AD3Δ ScErg11 Y140H expressing ScLDM6×His Y140H; experiment: Broth microdilution drug susceptibility assay (MIC80), strain AD3Δ ScErg11 Y140H; format: cell-based, Saccharomyces cerevisiae; conditions: for MIC80: Saccharomyces cerevisiae, 48 h, 30 °C, pH 6.8, mean (± SEM), n = 3; for MIC80 / MIC80/Relative Amount of ScLDM6×His / fold-resistance based on the relative amount of recombinant enzyme compared with strain AD3Δ: strain Y140H; for MIC80/Relative Amount of ScLDM6×His / fold-resistance based on the relative amount of recombinant enzyme compared with strain AD3Δ: relative expression 0.74
Description: as §1, §2

## CCC(C)n1ncn(-c2ccc(N3CCN(c4ccc(OCC5COC(Cn6cncn6)(c6ccc(Cl)cc6Cl)O5)cc4)CC3)cc2)c1=O (stereo not shown) [ITC, itraconazole]
[1]
  MIC80: 0.102 µM
  increased susceptibility compared with AD3Δ: 1.4 fold
  MIC80/Relative Amount of ScLDM6×His: 0.2 µM
  fold-resistance based on the relative amount of recombinant enzyme compared with strain AD3Δ: 1.4 ×
[2]
  effect of Mdr1 inhibitor MCC1189 on azole susceptibility: no effect on susceptibility
  effect of Cdr1p inhibitor RC21v3 on azole susceptibility: increased susceptibility
  agarose diffusion susceptibility: resistant
[3]
  MIC80: 0.0735 µM
[4]
  MIC80: 0.112 µM
  MIC80/Relative Amount of ScLDM6×His: 0.151 µM
  fold-resistance based on the relative amount of recombinant enzyme compared with strain AD3Δ: 1.1 ×
[4]; cells overexpressing ScLDM6×His Y140H, not corrected for expression
  susceptibility compared with AD3Δ cells: slightly increased susceptibility

## C[C@@H](c1ncncc1F)[C@](O)(Cn1cncn1)c1ccc(F)cc1F [VCZ, voriconazole]
[1]
  MIC80: 0.074 µM
  increased susceptibility compared with AD3Δ: 1.2 fold
  MIC80/Relative Amount of ScLDM6×His: 0.145 µM
  fold-resistance based on the relative amount of recombinant enzyme compared with strain AD3Δ: 1.6 ×
[2]
  effect of Mdr1 inhibitor MCC1189 on azole susceptibility: did not alter the susceptibility
  effect of Cdr1p inhibitor RC21v3 on azole susceptibility: did not alter the susceptibility
  agarose diffusion susceptibility: resistant
[3]
  MIC80: 0.0375 µM
[4]
  MIC80: 0.164 µM
  MIC80/Relative Amount of ScLDM6×His: 0.221 µM
  fold-resistance based on the relative amount of recombinant enzyme compared with strain AD3Δ: 2.4 ×
[4]; ScLDM6×His Y140H vs AD3Δ
  resistance conferred, relative amount of recombinant ScLDM6×His taken into account: 2.4 fold
[4]; strain AD3Δ ScErg11 Y140H vs AD3Δ, not corrected for expression, p < 0.001
  MIC80 higher than strain AD3Δ ScErg11: ~ 2 fold
